According to patent EP3807241B1, “IMPROVEMENTS IN OR RELATING TO ORGANIC COMPOUNDS” (Givaudan SA, priority 2018, dated 2019):
Like-named read-outs stand apart in the source and are kept apart here. Each block holds one compound with its values, some of them ahead of it.

Assays:
plated rat hepatocytes = format: in vitro ADME
Experimental: Short-term monolayer cultures of cryopreserved primary hepatocytes from rat were prepared in collagen coated 48-well plates to perform metabolic assays in a kinetic manner for up to 22 h.
Palatable primary male rat hepatocytes (Sprague-Dawley, Grade P pooled cryopreserved hepatocytes, for plated assays) and supplements were purchased from Biopredic International (Saint Grégoire, France). WEM (with Phenol Red, with GlutaMAX™, without HEPES) was purchased from Gibco™ (ThermoFisherScientific).
Cells were thawed following the supplier's protocol and seeded at a density of 450,000 cells/mL in 0.25 mL seeding medium (WEM supplemented with fetal bovine serum, Dexamethasone, penicillin-streptomycin, insulin, GlutaMAX™ and HEPES) using 48-well plates which were coated with collagen (Collagen I Rat Protein, Tail; Gibco™, ThermoFisherScientific) and incubated for 4-5 h to facilitate attachment. Then, the medium was changed to culturing medium (WEM supplemented with penicillin, streptomycin, insulin, hydrocortisone without serum) to prevent detachment of cells.
Test chemicals were dissolved in methanol (80-90% methanol) and directly added with the culture medium (0.8-0.9% final methanol concentration). For structure-activity studies, final concentration of test chemicals was 50 µM or 5 µM. Cells were incubated for 0.5-22 h in the presence of test chemicals. To stop the reactions, the culture medium was removed and 0.5 M citric acid (pH 2.0; 60 µL) and cold acetonitrile (60 µL) containing 2 µM decanoyl CoA as internal standard were added to each well. The attached cells were removed and disrupted by scraping the well with a pipette tip and by pipetting up and down several times, transferred in 1.5 mL tubes and frozen at -80°C. The cell lysates were defrozen, centrifuged (21,000 x g, 5 min, RT), and the supernatant was diluted with 1.36 mL Tris-buffer (4 mM) containing KCI (6 mM), MgCl2 (0.3 mM) and n-heptadecanoyl CoA as internal standard (0.2 µM). Samples were neutralized by addition of NaOH (42 µL of 1 M NaOH) and loaded onto solid phase extraction cartridges (OASIS HLB µEIution plate, Waters). Columns were washed with 200 µL of ammonium solution (1 M), and samples eluted sequentially with 50 µL acetonitrile and 50 µL water.
CoA conjugates were analyzed with high resolution LC-MS (LC-HRMS) on a Dionex UltiMate 3000 RS HPLC system coupled to a Q-Exactive orbitrap mass spectrometer (Thermo Scientific, Reinach, Switzerland) with electrospray ionization (ESI) in both positive and negative ionization mode. For liquid chromatography separation an Agilent Zorbax 300Extend-C18 column with dimensions 2.1 mm x 50 mm and particle size of 3.5 µm with a 2.1 mm x 10 mm pre-column of the same material was used. The flow rate was 0.4 mL/min. Eluent A consists of water containing 0.0025% ammonia (pH around 9.8) and eluent B consists of acetonitrile containing 0.0025% ammonia. A linear gradient was run from 95% eluent A (hold for 1 min) to 100% eluent B within 6 min (hold for 1 min), back to 95% eluent A within 0.5 min followed by 1.5 min equilibration time. The injection volume of the sample was 10 µl. The mass resolution of the HR-MS spectra was set to 70,000. The mass accuracy was <5ppm. […] Ion source parameters adjusted were as follows: sheath gas flow (30 arbitrary unit), auxiliary gas flow (10 arbitrary unit), capillary temperature (270°C), and source voltage (4kV in positive mode, -3kV in negative mode). Fragmentation was obtained from dissociation in an octopole collision cell using higher energy collision dissociation settings at 35 and 45 (arbitrary unit). The mass scan range was set from 120 to 1800 m/z.
Calibration standards were prepared with CoA, acetyl-CoA, benzoyl-CoA, TBBA-CoA, and octanoyl-CoA to determine the concentrations of CoA conjugates. Decanoyl-CoA and heptadecanoyl-CoA were used as internal standards. The limit of detection with this method is 0.005 µM for CoA conjugates. […]

[1] = test system: reproductive organs of male dogs; conditions: dog, in vivo; cited from earlier work
primates = conditions: cited from earlier work
guinea-pigs = conditions: guinea pig, in vivo; cited from earlier work
[2] = test system: reproductive organs of male rats; conditions: rat, in vivo; cited from earlier work
mice = conditions: mouse, in vivo; cited from earlier work
primary rat hepatocytes = conditions: TBBA treatment; cited from earlier work
[3] = male, Sprague-Dawley, rat, 0.5 h, 50 µM
[4] = male, Sprague-Dawley, rat, 4 h, 50 µM
[5] = male, Sprague-Dawley, rat, 22 h, 50 µM

SMILES: CC(C)CC1=CCC(CCC=O)C(C)C1 (stereo not drawn) [3-(4-isobutyl-6-methylcyclohex-3-en-1-yl)propanal]
CoA Conjugates Detected in Plated Rat Hepatocytes (Total Amount) (plated rat hepatocytes; [3]): 86 % of TBBA-CoA ex BMHCA
CoA conjugate detected: 3-(4-isobutyl-2-methylcyclohexyl)propanoic acid-CoA (plated rat hepatocytes; [3]): 3 % of TBBA-CoA ex BMHCA
CoA conjugate detected: 3-(4-isobutyl-6-methylcyclohex-3-en-1-yl)propanoic acid (plated rat hepatocytes; [3]): 58 % of TBBA-CoA ex BMHCA
CoA conjugate detected: 3-(4-isobutyl-6-methylcyclohexa-1,3-dien-1-yl)propanoic acid-CoA (plated rat hepatocytes; [3]): 21 % of TBBA-CoA ex BMHCA
CoA conjugate detected: 4-isobutyl-6-methylcyclohex-3-ene-1-carboxylic acid-CoA (plated rat hepatocytes; [3]): 4 % of TBBA-CoA ex BMHCA
CoA Conjugates Detected in Plated Rat Hepatocytes (Total Amount) (plated rat hepatocytes; [4]): 31 % of TBBA-CoA ex BMHCA
CoA conjugate detected: 3-(4-isobutyl-6-methylcyclohex-3-en-1-yl)propanoic acid (plated rat hepatocytes; [4]): 19 % of TBBA-CoA ex BMHCA
CoA conjugate detected: 3-(4-isobutyl-6-methylcyclohexa-1,3-dien-1-yl)propanoic acid-CoA (plated rat hepatocytes; [4]): 8 % of TBBA-CoA ex BMHCA
CoA conjugate detected: 4-isobutyl-6-methylcyclohex-3-ene-1-carboxylic acid-CoA (plated rat hepatocytes; [4]): 4 % of TBBA-CoA ex BMHCA

SMILES: CC(C=O)Cc1ccc(C(C)(C)C)cc1 (stereo not drawn) [BMHCA, 3-(4-tert-butylphenyl)-2-methylpropanal]
toxic effects on the reproductive organs [1]: toxic effects
toxic effects (primates): No effects
CoA Conjugates Detected in Plated Rat Hepatocytes (Total Amount) (plated rat hepatocytes; [3]): 100 % of TBBA-CoA ex BMHCA
CoA Conjugates Detected in Plated Rat Hepatocytes (Total Amount) (plated rat hepatocytes; [4]): 100 % of TBBA-CoA ex BMHCA
CoA Conjugates Detected in Plated Rat Hepatocytes (Total Amount) (plated rat hepatocytes; [5]): 100 % of TBBA-CoA ex BMHCA
toxic effects (guinea-pigs): No effects
toxic effects on the reproductive organs [2]: toxic effects
toxic effects (mice): No effects

SMILES: CC(C)(C)c1ccc(C(=O)O)cc1 [TBBA, 4-(tert-butyl)benzoic acid]
p-tert-butyl-benzoyl-CoA accumulates to stable levels within (plated rat hepatocytes; male, Sprague-Dawley, rat): 0.5 to 4 h
CoA, acetyl-CoA and citrate levels (primary rat hepatocytes): decreased

More lines, main results first:

main conjugate detected (plated rat hepatocytes; male, Sprague-Dawley, rat, 50 µM): 4-isobutylbenzoic acid-CoA
CoA Conjugates Detected in Plated Rat Hepatocytes (Total Amount) (plated rat hepatocytes; [3]): 74 % of TBBA-CoA ex BMHCA
CoA conjugate detected: 3-(4-isobutylcyclohex-3-en-1-yl)propanoic acid-CoA (plated rat hepatocytes; [3]): 19 % of TBBA-CoA ex BMHCA
CoA conjugate detected: 3-(4-isobutylcyclohexa-1,3-dien-1-yl)propanoic acid-CoA (plated rat hepatocytes; [3]): 12 % of TBBA-CoA ex BMHCA
CoA conjugate detected: 4-isobutylcyclohex-3-ene-1-carboxylic acid-CoA (plated rat hepatocytes; [3]): 23 % of TBBA-CoA ex BMHCA
CoA conjugate detected: 4-isobutylcyclohexa-1,3-diene-1-carboxylic acid-CoA (plated rat hepatocytes; [3]): 8 % of TBBA-CoA ex BMHCA
CoA Conjugates Detected in Plated Rat Hepatocytes (Total Amount) (plated rat hepatocytes; [4]): 45 % of TBBA-CoA ex BMHCA
CoA conjugate detected: 3-(4-isobutylcyclohex-3-en-1-yl)propanoic acid-CoA (plated rat hepatocytes; [4]): 2 % of TBBA-CoA ex BMHCA
CoA conjugate detected: 3-(4-isobutylcyclohexa-1,3-dien-1-yl)propanoic acid-CoA (plated rat hepatocytes; [4]): 2 % of TBBA-CoA ex BMHCA
CoA conjugate detected: 4-isobutylcyclohex-3-ene-1-carboxylic acid-CoA (plated rat hepatocytes; [4]): 10 % of TBBA-CoA ex BMHCA
CoA conjugate detected: 4-isobutylcyclohexa-1,3-diene-1-carboxylic acid-CoA (plated rat hepatocytes; [4]): 8 % of TBBA-CoA ex BMHCA
CoA Conjugates Detected in Plated Rat Hepatocytes (Total Amount) (plated rat hepatocytes; [5]): 29 % of TBBA-CoA ex BMHCA
CoA conjugate detected: 3-(4-isobutylcyclohex-3-en-1-yl)propanoic acid-CoA (plated rat hepatocytes; [5]): 3 % of TBBA-CoA ex BMHCA
CoA conjugate detected: 4-isobutylcyclohex-3-ene-1-carboxylic acid-CoA (plated rat hepatocytes; [5]): 5 % of TBBA-CoA ex BMHCA
SMILES: CC(C)CC1=CCC(CCC=O)CC1 (stereo not drawn) [3-(4-isobutylcyclohex-3-en-1-yl)propanal]

accumulation of CoA-conjugates (in words) (plated rat hepatocytes): significantly reduced accumulation
CoA Conjugates Detected in Plated Rat Hepatocytes (Total Amount) (plated rat hepatocytes; [3]): 62 % of TBBA-CoA ex BMHCA
CoA conjugate detected: 3-(4-isopropyl-2-methylcyclohex-1-en-1-yl)propanoic acid-CoA (plated rat hepatocytes; [3]): 22 % of TBBA-CoA ex BMHCA
CoA conjugate detected: 3-(4-isopropyl-2-methylcyclohexa-1,5-dien-1-yl)propanoic acid-CoA (plated rat hepatocytes; [3]): 34 % of TBBA-CoA ex BMHCA
CoA conjugate detected: 3-(4-isopropyl-2-methylphenyl)propanoic acid-CoA (plated rat hepatocytes; [3]): 2 % of TBBA-CoA ex BMHCA
CoA conjugate detected: 4-isopropyl-2-methylcyclohex-1-ene-1-carboxylic acid-CoA (plated rat hepatocytes; [3]): 4 % of TBBA-CoA ex BMHCA
CoA Conjugates Detected in Plated Rat Hepatocytes (Total Amount) (plated rat hepatocytes; [4]): 28 % of TBBA-CoA ex BMHCA
CoA conjugate detected: 3-(4-isopropyl-2-methylcyclohex-1-en-1-yl)propanoic acid-CoA (plated rat hepatocytes; [4]): 10 % of TBBA-CoA ex BMHCA
CoA conjugate detected: 3-(4-isopropyl-2-methylcyclohexa-1,5-dien-1-yl)propanoic acid-CoA (plated rat hepatocytes; [4]): 13 % of TBBA-CoA ex BMHCA
CoA conjugate detected: 3-(4-isopropyl-2-methylphenyl)propanoic acid-CoA (plated rat hepatocytes; [4]): 2 % of TBBA-CoA ex BMHCA
CoA conjugate detected: 4-isopropyl-2-methylcyclohex-1-ene-1-carboxylic acid-CoA (plated rat hepatocytes; [4]): 3 % of TBBA-CoA ex BMHCA
CoA Conjugates Detected in Plated Rat Hepatocytes (Total Amount) (plated rat hepatocytes; [5]): 9 % of TBBA-CoA ex BMHCA
CoA conjugate detected: 3-(4-isopropyl-2-methylcyclohex-1-en-1-yl)propanoic acid-CoA (plated rat hepatocytes; [5]): 3 % of TBBA-CoA ex BMHCA
CoA conjugate detected: 3-(4-isopropyl-2-methylcyclohexa-1,5-dien-1-yl)propanoic acid-CoA (plated rat hepatocytes; [5]): 3 % of TBBA-CoA ex BMHCA
CoA conjugate detected: 4-isopropyl-2-methylcyclohex-1-ene-1-carboxylic acid-CoA (plated rat hepatocytes; [5]): 3 % of TBBA-CoA ex BMHCA
SMILES: CC1=C(CCC=O)CCC(C(C)C)C1 (stereo not drawn) [3-(4-isopropyl-2-methylcyclo-hex-1-en-1-yl)propanal]
GC Odor Threshold (GC odor threshold): 0.022 ng/L

accumulation of CoA-conjugates (in words) (plated rat hepatocytes): substantial accumulation
CoA Conjugates Detected in Plated Rat Hepatocytes (Total Amount) (plated rat hepatocytes; [3]): 124 % of TBBA-CoA ex BMHCA
CoA conjugate detected: 3-(4-isopropylcyclohex-1-en-1-yl)propanoic acid-CoA (plated rat hepatocytes; [3]): 53 % of TBBA-CoA ex BMHCA
CoA conjugate detected: 3-(4-isopropylcyclohexa-1 ,5-dien-1-yl)propanoic acid-CoA (plated rat hepatocytes; [3]): 36 % of TBBA-CoA ex BMHCA
CoA conjugate detected: 4-isopropylcyclohex-1-ene-1-carboxylic acid-CoA (plated rat hepatocytes; [3]): 23 % of TBBA-CoA ex BMHCA
CoA conjugate detected: 4-isopropylcyclohexane-1-carboxylic acid-CoA (plated rat hepatocytes; [3]): 12 % of TBBA-CoA ex BMHCA
CoA Conjugates Detected in Plated Rat Hepatocytes (Total Amount) (plated rat hepatocytes; [4]): 79 % of TBBA-CoA ex BMHCA
CoA conjugate detected: 3-(4-isopropylcyclohex-1-en-1-yl)propanoic acid-CoA (plated rat hepatocytes; [4]): 26 % of TBBA-CoA ex BMHCA
CoA conjugate detected: 3-(4-isopropylcyclohexa-1 ,5-dien-1-yl)propanoic acid-CoA (plated rat hepatocytes; [4]): 17 % of TBBA-CoA ex BMHCA
CoA conjugate detected: 4-isopropylcyclohex-1-ene-1-carboxylic acid-CoA (plated rat hepatocytes; [4]): 26 % of TBBA-CoA ex BMHCA
CoA conjugate detected: 4-isopropylcyclohexane-1-carboxylic acid-CoA (plated rat hepatocytes; [4]): 10 % of TBBA-CoA ex BMHCA
CoA Conjugates Detected in Plated Rat Hepatocytes (Total Amount) (plated rat hepatocytes; [5]): 31 % of TBBA-CoA ex BMHCA
CoA conjugate detected: 4-isopropylcyclohex-1-ene-1-carboxylic acid-CoA (plated rat hepatocytes; [5]): 24 % of TBBA-CoA ex BMHCA
CoA conjugate detected: 4-isopropylcyclohexane-1-carboxylic acid-CoA (plated rat hepatocytes; [5]): 7 % of TBBA-CoA ex BMHCA
SMILES: CC(C)C1CC=C(CCC=O)CC1 (stereo not drawn) [3-(4-isopropylcyclohex-1-en-1-yl)propanal]
